{
  "source": "patent US4033721A",
  "about": "“Analysis of gentian violet residue in tissue” (priority 1976, dated 1977)",
  "key": {"[1]": {"tested_on": "Candida albicans", "details": "cited from earlier work"}, "[2]": {"details": "cited from earlier work"}, "[3]": {"experiment": "Residual 14C-gentian violet in tissues of cockerels after repeated oral administration (Example 26)"}, "[4]": {"experiment": "Spectrophotometric determination of gentian violet residue in livers of chickens fed gentian violet (Examples 2 to 24)", "format": "in vivo", "method": "This example involves the spectrophotometrical determination of the gentian violet content (as a residue) of poultry tissue.\nAn acid alcohol solution was prepared by adding 20 ml of concentrated hydrochloric acid to 2,000 ml of 95 percent ethyl alcohol (denatured).\nA gentian violet stock solution was prepared as follows: Using the Ainsworth chainomatic analytical balance, 0.104 gm of crystalline gentian violet (USP) was accurately weighed out and quantitatively transferred to a 1000 ml volumetric flask and q.s. to 1000 ml with distilled water. A magnetic stirring bar was inserted into the flask and the gentian violet solution was mixed on a magnetic mixer for 1 hour. This solution contained 100 ug of gentian violet per ml (100 ppm).\nGentian violet-acid alcohol standard solutions were prepared as follows: Five standard dilutions of gentian violet in acid alcohol were prepared and the absorbence (O.D.) for each dilution was determined. The absorbence of the 5 dilutions were plotted on a graph to determine the linearity of the gentian violet curve.\nThe spectrophotometer was set at 590 mμ and zeroed using an acid alcohol blank. The absorbence of the 5 standard dilutions in the 13 mm cuvette was determined. The O.D. of the 1 ppm dilution in the 13 mm cuvette was recorded for use in calculation of the gentian violet recovery. (If method sensitivity below 0.1 ppm is desired, the O.D. of the 1 ppm standard in the 100 mm cell is recorded and the Beckman D.U. is used to make the determinations.)\nA sodium hypochlorite quenching solution was prepared as follows: 0.26 gm. of sodium hypochlorite was weighed into a 250 ml Erlenmeyer flask and q.s. to 100 ml with distilled water. This solution was 0.26 percent NaOCL. If sodium hypochlorite is not available in the laboratory, this solution can be made from any standard household bleaching solution containing sodium hypochlorite (i.e., Clorox) at the 5.25 percent concentration. 1 ml 5.25 percent NaOCL q.s. to 20 ml with distilled water to give 20 ml of 0.26 percent NaOCL.\nThe tissue samples were prepared by grinding the tissues in a Waring-type blender to reduce the tissues to the smallest particle size possible. Using a Mettler P162-type balance, 5 gm samples of the finely ground tissues were weighed (in triplicate) into Erlenmeyer flasks.\nGentian violet was extracted from tissue samples as follows: 50 ml of acid-alcohol were added (using a graduated glass cylinder) to each of the samples in the flasks. A 3/4\" magnetic stirring bar was inserted into each sample. The flasks were stoppered. The samples were placed on the magnetic mixers and mixed for 1 hour. After mixing, the samples were set in the dark to digest for 12 hours (overnight). After 12 hours of digestion the samples were again placed on the magnetic mixer and mixed for 1 hour. The contents of the sample flasks were poured into 60 ml glass centrifuge tubes and centrifuged at 2400 rpm for 10 minutes.\nChromatographic column clearing of the centrifuged samples was achieved as follows: Each column was equipped with a glass stop-cock, if the column was not so equipped. A small glass-wool pledget was inserted firmly in the bottom of the column to fill the bottom curve of the column. 5 to 6 grams of the Alumin AR sorbent was added to each column. The supernatant liquid was carefully decanted from the centrifuge tube into the chromatographic column. A 50 ml beaker was placed under each column. The stop-cock was opened and the first eluant from the column was collected until a minimum of 20 ml was collected. (This first eluant ordinarily was yellow in color but contained the extracted gentian violet.)\nSpectrophotometric determination of the gentian violet concentration from the tissue sample was determined as follows: 5 ml of each of the eluants was pipetted into the 13 mm cuvettes. The spectrophotometer was set at 590 mu. The spectrophotometer was zeroed using an acid alcohol blank in the 13 mm cuvette. It was established that all cuvettes were matched. […]"}, "[5]": {"tested_on": "normal coliform bacteria", "details": "intestinal tract; cited from earlier work"}, "[6]": {"details": "cited from earlier work", "remark": "listed apart in the source"}, "[7]": {"experiment": "Stability of gentian violet (light, acid, digestive tract pH)", "format": "physicochemical"}, "[8]": {"details": "cited from earlier work", "remark": "listed apart in the source"}, "[9]": {"details": "cited from earlier work", "remark": "listed apart in the source"}, "[10]": {"details": "water, chloroform and ethanol; cited from earlier work"}, "[11]": {"details": "4 hours after last administration"}},
  "note": "Several values for one entry are separate records, joined by “and”; a condition that tells them apart may be missing. Equal values may be shown once. Read-outs that look alike come from different tables or passages of the source.",
  "data": [
    {"compound": "CN(C)c1ccc(C(=C2C=CC(=[N+](C)C)C=C2)c2ccc(N(C)C)cc2)cc1", "note": "[gentian violet, hexamethylpararosaniline chloride]", "values": [
      {"measurement": "effect on Candida albicans", "setting": "[1]", "value": "inhibits the growth of and destroys Candida albicans"},
      {"measurement": "biodegradability", "setting": "[2]; contaminant in water and residue in poultry manure, ultra-violet rays of sunlight", "value": "biodegradable"},
      {"measurement": "stability in the digestive tract pH range", "setting": "[2]; pH range of the digestive tract of animals and poultry", "value": "stable"},
      {"measurement": "radioactivity in 5X kidneys relative to 1X kidneys", "setting": "[3]; [11]", "value": 4.7, "unit": "times"},
      {"measurement": "radioactivity in 5X livers relative to 1X livers", "setting": "[3]; [11]", "value": 2.7, "unit": "times"},
      {"measurement": "concentration by the liver relative to the kidneys", "setting": "[3]; in vivo", "value": "about twice as much"},
      {"measurement": "disappearance from one organ versus the other", "setting": "[3]; livers and kidneys", "value": "does not disappear more rapidly from one organ than the other"},
      {"measurement": "mean half-life in the two organs at dose levels", "setting": "[3]; livers and kidneys, 5X and 1X", "value": 32.2, "unit": "h"},
      {"measurement": "gentian violet residue with time after last intake of feed", "setting": "[4]; chicken liver", "value": "lower with time"},
      {"measurement": "p.p.m. of Gentian Violet in liver", "setting": "[4]; chicken liver, feed 7 ppm for 56 days, 4 hours after final dose, 240 min", "value": 0.28, "unit": "p.p.m."},
      {"measurement": "p.p.m. of Gentian Violet in liver", "setting": "[4]; chicken liver, feed 7 ppm for 56 days, 24 hours after final dose, 1440 min", "value": 0.20, "unit": "p.p.m."},
      {"measurement": "p.p.m. of Gentian Violet in liver", "setting": "[4]; chicken liver, feed 7 ppm for 56 days, 48 hours after final dose, 2880 min", "value": "0.08 p.p.m. and 0.16 p.p.m."},
      {"measurement": "p.p.m. of Gentian Violet in liver", "setting": "[4]; chicken liver, feed 35 ppm for 56 days, 12 hours after final dose", "value": 0.44, "unit": "p.p.m."},
      {"measurement": "p.p.m. of Gentian Violet in liver", "setting": "[4]; chicken liver, feed 35 ppm for 56 days, 24 hours after final dose, 1440 min", "value": "0.80 p.p.m. and 0.60 p.p.m."},
      {"measurement": "concentration at 4 h", "setting": "[4]; chicken, liver, po, feed 7 ppm for 56 days, 4 hours after final dose, read-out: p.p.m. of Gentian Violet in liver", "value": 240, "unit": "ng/g"},
      {"measurement": "concentration at 12 h", "setting": "[4]; chicken, liver, po, feed 7 ppm for 56 days, 12 hours after final dose, read-out: p.p.m. of Gentian Violet in liver", "value": 120, "unit": "ng/g"},
      {"measurement": "concentration at 48 h", "setting": "[4]; chicken, liver, po, feed 7 ppm for 56 days, 48 hours after final dose, read-out: p.p.m. of Gentian Violet in liver", "value": 80, "unit": "ng/g"},
      {"measurement": "concentration at 12 h", "setting": "[4]; chicken, liver, po, feed 35 ppm for 56 days, 12 hours after final dose, read-out: p.p.m. of Gentian Violet in liver", "value": 440, "unit": "ng/g"},
      {"measurement": "concentration at 24 h", "setting": "[4]; chicken, liver, po, feed 35 ppm for 56 days, 24 hours after final dose, read-out: p.p.m. of Gentian Violet in liver", "value": 640, "unit": "ng/g"},
      {"measurement": "concentration at 48 h", "setting": "[4]; chicken, liver, po, feed 35 ppm for 56 days, 48 hours after final dose, read-out: p.p.m. of Gentian Violet in liver", "value": 360, "unit": "ng/g"},
      {"measurement": "effect on growth and activity of normal coliform bacteria", "setting": "[5]", "value": "without materially reducing the growth of and activity of the normal coliform bacteria"},
      {"measurement": "absorption", "setting": "[6]; digestive tract of animals and poultry", "value": "essentially non-absorbable"},
      {"measurement": "residue in tissue of animals fed the compositions", "setting": "[6]; in vivo", "value": "little or no residue"},
      {"measurement": "acid stability", "setting": "[7]; acid ethanol extract, pH lowered by evaporation", "value": "the acid would destroy the extracted gentian violet"},
      {"measurement": "light stability", "setting": "[7]; ultra violet rays of sunlight", "value": "extremely sensitive to decomposition"},
      {"measurement": "growth on mycotoxin-contaminated feed", "setting": "[8]; feed containing gentian violet at the claimed levels", "value": "increased at a rate significantly faster"},
      {"measurement": "growth promotion", "setting": "[8]; feed contaminated with aflatoxin", "value": "works as a growth promoter"},
      {"measurement": "sparing effect versus aflatoxin concentration", "setting": "[8]; in vivo", "value": "appears to be a linear function of the concentration of the aflatoxin in the feed"},
      {"measurement": "toxic effects in poultry", "setting": "[9]; in vivo", "value": "can kill the poultry or cause a decrease in the weight gain of the poultry"},
      {"measurement": "toxicity of residue levels to the consuming animal or poultry", "setting": "[9]; levels given in U.S. Pat. No. 3,916,027", "value": "not toxic or harmful"},
      {"measurement": "solubility", "setting": "[10]", "value": "soluble in water, chloroform and ethanol"}
    ]}
  ]
}
